Counter-ions that a name gives are not always drawn. Like-named read-outs stand apart in the source and are kept apart here.
How the values were obtained:
[1] = Stability in aqueous solution; assay type: physicochemical
Description: In the parent application it was pointed out that DAM, the active ingredient, is effectively soluble and stable in water in the form of its hydrochloride salt. Deacetyl moxisylyte hydrochloride (DAM.HCl) is soluble up to a concentration of 10% p/v, which is the upper therapeutically acceptable concentration, in pure (i.e. distilled, bidistilled or preferably deionized) water and in aqueous solutions buffered at pH 5-7. Water solutions containing 1% p/v of deacetyl moxisylyte hydrochloride without any antioxidant and kept at pH 5, 6 and 7, are stable for 15 days at 25° C. and for 90 minutes at 121° C. […] More details regarding the solubility and stability in water of DAM.HCl are given in the parent application.

[2] = Hepatotoxicity on administration (general statement); assay type: in vivo; details: administered iv at 50 mg or less doses
[3] = target: T1, isolated rabbit urethra (contraction induced by noradrenaline) (Oryctolagus cuniculus, UniProt O02824); assay: Isolated rabbit urethra: antagonism of noradrenaline-induced contraction; assay type: cell-based; details: against noradrenaline, isolated male rabbit urethra, 5 experiments; read-out: pA2 (converted)
T1 construct: from tissue; host or cells: isolated urethra of male rabbits
T1 sequence (O02824 1-466): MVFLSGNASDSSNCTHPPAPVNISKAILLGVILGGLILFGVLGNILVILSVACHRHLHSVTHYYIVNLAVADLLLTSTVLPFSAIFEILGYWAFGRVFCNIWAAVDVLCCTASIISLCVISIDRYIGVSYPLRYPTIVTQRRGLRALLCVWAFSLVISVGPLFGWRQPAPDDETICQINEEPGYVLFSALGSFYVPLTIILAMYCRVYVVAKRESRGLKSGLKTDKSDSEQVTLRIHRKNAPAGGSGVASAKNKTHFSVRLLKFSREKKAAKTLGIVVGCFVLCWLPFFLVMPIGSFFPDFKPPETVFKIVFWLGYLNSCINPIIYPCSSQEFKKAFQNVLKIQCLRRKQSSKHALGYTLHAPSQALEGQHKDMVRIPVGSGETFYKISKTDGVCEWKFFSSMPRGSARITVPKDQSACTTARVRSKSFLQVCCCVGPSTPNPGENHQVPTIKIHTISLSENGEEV
Procedure: After slaughtering of male rabbits, each urethra was taken out then placed into a receptacle containing a physiological saline aqueous solution, and kept at 37° C. with an oxygen/carbon oxide mixture (95/5 p/p). One end of the urethra was fixed to a pressure captor linked to a recording device for measuring the organ contractions.
Contracturing effects of noradrenaline were determined by succesive infusions of increasing […] up to the contraction corresponding to the maximal amplitude. The measures were carded out with and without DAM.HCl.
The activity of DAM.HCl was measured as a pA2 value, pA2 being here the cologarithm of the antagonist molar concentration in the presence of which the noradrenaline concentration needs to be multiplied by two to obtain the same effect in the absence of antagonist.

[4] = system: α1 -adrenoreceptors; assay: Radioligand binding, (125I)-HEAT, rabbit urethral membranes
Procedure: (§1) α-adrenoreceptors can be by use of a ^3 H- or 125 I- labelled specific antagonist (or agonist) on membrane preparations of the concerned organ, here rabbit urethra.
(§2) A male rabbit urethral grinding was filtered then centrifugated. The filtrate thus obtained is a membrane preparation which was incubated with a radioactive ligand, namely (^125 I)-HEAT [wherein HEAT is 2-[2-(3-iodio-4-hydroxyphenyl)ethyl-aminoethyl]-tetralone for the α1 -adrenoreceptors, and (^3 H)-rauwolscine for the α2 -adrenoreceptors.
(§3) The incubations were carded out in the absence or in the presence of an increasing concentration of the product to be tested. The affinity was measured by means of the inhibition coefficient (Ki).

[5] = target: α2 -adrenoreceptors; assay: Radioligand binding, (3H)-rauwolscine, rabbit urethral membranes; details: male rabbit urethral membrane preparation
Procedure: as §1, §2, §3

[6] = system: urethral and arterial pressures induced by noradrenaline; assay: Anesthetized rabbits: noradrenaline-induced increases in urethral and arterial pressure; assay type: in vivo, rabbit; details: Oryctolagus cuniculus, iv, noradrenaline-induced increase, i.v.
Procedure: Male White New-Zealand rabbits (weighing 3 kg each) were anesthetized with ethyl-urethane. Arterial pressure (AP) was measured with a pressure captor linked to a catheter located in the carotid; urethral pressure (UP) was determined with a pressure captor linked to a catheter introduced into the urethra and located at the level of the vesical base. The femoral vein was also catheterized for administering the products to be tested.
The increases in the urethral and arterial pressures, which were induced by noradrenaline, were determined after i.v. injections of increasing doses for periods of 3 minutes each, from 15 minutes before the injection of the α-blocking product to be tested to 15 minutes after said injection.
The results thus obtained are expressed hereinafter an inhibiting dose 50% (ID-50) which is defined as the dose of a-blocking product in the presence of which, the effect of the largest dose of noradrenaline is divided by a factor 2.

[7] = system: increase in UP induced by electric stimulation of the hypogastric nerve; assay: Anesthetized dogs: hypogastric nerve stimulation, urethral pressure, AP and HR; assay type: in vivo, dog; details: anesthetized Beagle dogs
Procedure: Adult male Beagle dogs were anesthetized by i.v. injection of sodium barbital (30 mg/kg).
The cannulation of each carotid and urethra allowed measurement of AP and UP. By derivation of the AP signal, the heart rate (HR) was recorded.
The increase in UP was induced by electric stimulation of the hypogastric nerve distal roots (10 ms, 30 Hz, 5s, 6-10 V). That increase in UP is determined before and 15 minutes after the injection of the α-blocking agent to be tested.
The results were expressed by calculating a ID-50 defined as the dose of α-blocking agent which inhibits 50% of the effects of the hypogastric nerve stimulation on UP. The effects of said ID-50 were determined on AP and HR in order to obtain a variation percentage with respect to the initial values.

[8] = system: liver; assay: Absence of hepatotoxicity, 2-month daily i.v. injection in rats; assay type: in vivo, rat; details: male Wistar rats, 1.5 mg/kg daily i.v. for 2 months
Procedure: Adult male Wistar rats were daily injected with 1.5 mg/kg of DAM.HCl in saline solution (i.e. the solution of Ex 1) per i.v. route for 2 months, then slaughtered.

[9] = pure water and aqueous solutions buffered at pH 5-7; cited from earlier work
[10] = cited from earlier work

With `Cc1cc(OCCN(C)C)c(C(C)C)cc1O` [DAM, 4-[2-(dimethylamino)ethoxy]-2-methyl-5-(1-methylethyl)phenol] the “stability in aqueous solution” value ([1]; aqueous solution) was “stable”, the “degradation on sterilization of aqueous solution” value ([1]; classical sterilization, e.g. autoclave 15 minutes at 121° C. or sterilizing filtration) was “without degradation” and the hepatotoxicity i.v. [2] was “substantially devoid of hepatotoxicity”.
With `Cc1cc(OCCN(C)C)c(C(C)C)cc1O` [DAM.HCl, Deacetyl moxisylyte hydrochloride] the Kb [3] was 3.16 nM, the “times more active on α1 -adrenoreceptors than on α2 -adrenoreceptors” value ([4]; from Ki values of table II) was “six” and the Ki ([4]; male rabbit urethral membrane preparation, (125I)-HEAT) was 109 ± 20 nM. For the same molecule, the Ki [5] was 637 ± 94 nM, the ED50 ([6]; n = 5, read-out: ID-50 i.v., AP (arterial pressure)) was 3.5 ± 0.65 mg/kg and the ED50 ([6]; n = 5, read-out: ID-50 i.v., UP (urethral pressure)) was 0.4 ± 0.03 mg/kg. For the same molecule, the “Effect of ID-50 on AP (variation percentage with respect to the initial values)” value ([7]; at the ID-50 dose) was -6%, the “Effect of ID-50 on HR (variation percentage with respect to the initial values)” value ([7]; at the ID-50 dose) was -5% and the “ID-50, effect on UP” value ([7]; hypogastric nerve stimulation, 15 minutes after injection, in mg/kg) was 0.05 ± 0.01. For the same molecule, the “hepatotoxicity (study of organs, analysis of the liver)” value [8] was “no sign of hepatotoxicity”, the solubility (soluble up to a concentration) [9] was over 10 % p/v and the “stability of water solution at 25° C.” value ([10]; 1% p/v, no antioxidant, pH 5, 6 and 7, 25° C.) was 15 days. For the same molecule, the “stability of water solution at 121° C.” value ([10]; 1% p/v, no antioxidant, pH 5, 6 and 7, 121° C.) was 90 min and the “stability of water solution with Na2 SO3 at 95° C.” value ([10]; 1% p/v, pH 5, 6 and 7, sodium sulfite 0.1 p/v, 95° C., no coloration) was 15 days.
In the case of `CC(=O)Oc1cc(C(C)C)c(OCCN(C)C)cc1C` [moxisylyte, 4-[2-(dimethylamino)ethoxy]-2-methyl-5-(1methylethyl)phenol acetate, reference compound], the “stability of solution stabilized with dimethyl-beta-cyclodextrin at 45° C.” value ([10]; pH 5 solution, 1 mg/ml, dimethyl-beta-cyclodextrin as stabilizing agent, 45° C.) is given as 3 months.

— patent publication US5561154A, “Treatment of acute urinary retention” (Institut de Recherches Chimiques et Bioloques Appliquees …, priority 1995, dated 1996)
